Laboratory results from patent publication US10639299B2, “Calcium sensing receptors, ligands, compositions, and methods of use” (Georgia State University Research Foundation, Inc., priority 2016, dated 2020).
Like-named read-outs stand apart in the source and are kept apart here.

Columns and labels:
CaSR [1] = biological target: T1, CaSR (Homo sapiens, UniProt P41180); test: [Ca^2+]i signaling (Fura-2) evoked by [Mg^2+]o/[Ca^2+]o in CaSR-expressing HEK293 cells (5001 cell population assay); assay type: cell-based; design: expressed in transfected cells
T1 sequence (P41180 20-1078): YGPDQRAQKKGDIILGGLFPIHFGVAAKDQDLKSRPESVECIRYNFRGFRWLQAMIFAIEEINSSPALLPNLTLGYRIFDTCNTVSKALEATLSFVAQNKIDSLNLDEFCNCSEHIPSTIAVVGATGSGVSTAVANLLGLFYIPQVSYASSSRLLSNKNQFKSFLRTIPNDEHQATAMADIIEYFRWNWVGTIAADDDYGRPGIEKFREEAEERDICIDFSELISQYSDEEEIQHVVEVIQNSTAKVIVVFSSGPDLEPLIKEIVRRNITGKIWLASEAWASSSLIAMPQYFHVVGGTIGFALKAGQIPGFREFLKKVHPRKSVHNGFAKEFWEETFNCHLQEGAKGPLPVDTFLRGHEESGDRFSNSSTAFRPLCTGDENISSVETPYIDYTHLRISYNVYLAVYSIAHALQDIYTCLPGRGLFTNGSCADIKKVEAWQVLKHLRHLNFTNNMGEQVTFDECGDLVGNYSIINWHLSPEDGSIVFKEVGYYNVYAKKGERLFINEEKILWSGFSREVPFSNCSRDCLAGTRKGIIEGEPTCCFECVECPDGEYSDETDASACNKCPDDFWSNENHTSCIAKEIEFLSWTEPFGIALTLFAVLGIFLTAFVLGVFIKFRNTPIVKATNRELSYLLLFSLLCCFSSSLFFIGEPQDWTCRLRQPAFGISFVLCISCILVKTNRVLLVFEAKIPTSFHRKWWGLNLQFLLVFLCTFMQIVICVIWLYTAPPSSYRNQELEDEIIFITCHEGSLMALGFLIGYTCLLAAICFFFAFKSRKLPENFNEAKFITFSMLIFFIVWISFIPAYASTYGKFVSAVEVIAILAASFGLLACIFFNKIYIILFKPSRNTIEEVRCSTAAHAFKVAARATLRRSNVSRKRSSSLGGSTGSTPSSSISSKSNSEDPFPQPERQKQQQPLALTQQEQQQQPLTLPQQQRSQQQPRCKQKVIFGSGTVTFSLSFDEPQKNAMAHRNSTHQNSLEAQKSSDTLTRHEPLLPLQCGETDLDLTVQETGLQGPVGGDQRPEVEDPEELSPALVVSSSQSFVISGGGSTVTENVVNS
Experimental: Measurement of intracellular free Ca^2+ was assessed as described by Huang, et al^33. Briefly, wild type CaSR, or its mutants, were transiently transfected into HEK293 cells grown on coverslips and cultured for 48 h. The cells were subsequently loaded for 15 min using 2 μM Fura-2 AM in 2 mL physiological saline buffer (10 mM HEPES, 140 mM NaCl, 5 mM KCl, 1.0 mM MgCl2 and pH 7.4). The coverslips were mounted in a bath chamber on the stage of a Leica DM6000 fluorescence microscope. The cells were alternately illuminated with 340 or 380 nm light, and the fluorescence at an emission wavelength 510 nm was recorded in real time as the [Ca^2+]o and/or [Mg^2+]o was increased in a stepwise manner in the presence or absence of 0.25 mM TNCA in buffer (10 mM HEPES, 155 mM NaCl, 5 mM KCl, 2 mM NaH2PO4, 0.5 mM MgCl2 and pH 7.4). The ratio of the emitted fluorescence intensities resulting from excitation at both wavelengths was utilized as a surrogate for changes in [Ca^2+]i and was further plotted and analyzed as a function of [Ca^2+]o. All experiments were performed at room temperature. The signals from 20 to 100 single cells were recorded for each measurement. Oscillations were identified as three successive fluctuations in [Ca^2+]i after the initial peak. Determination of the Effect of TNCA on Mg^2+-Evoked [Ca^2+]i Signaling by Stimulation of CaSR in Cell Populations.
Changes in the intracellular Ca^2+ concentration [Ca^2+ ]i elicited by extracellular Mg^2+ ([Mg^2+]o) in a population of cells were measured by fluorimetry as described previously^33. A cell line stably expressing CaSR (designated the “5001 cell line”) was seeded on 13.5×20-mm coverslips and cultured in DMEM. After reaching 95% confluence, cells were washed three times using loading buffer (20 mM HEPES [pH 7.4], 125 mM NaCl, 5 mM KCl, 1.25 mM CaCl2, 1 mM MgCl2, 1 mM NaH2PO4, 1% glucose, and 1% BSA) and subsequently incubated with 4 μM Fura-2 and 4 μM pluronic F127 for 20 minutes at 37° C. to enable sufficient dye loading in the same buffer. After removing the excess Fura-2, coverslips with cells were diagonally positioned in a quartz cuvette filled with 3 ml of experimental buffer (125 mM NaCl, 5 mM KCl, 0.5 mM CaCl2, 0.5 mM MgCl2, 1% glucose, and 1% BSA). Measurements of Fura-2 fluorescence at 510 nm when excited at 340 or 380 nm were performed on a QM1 fluorescence spectrophotometer (PTI). The emission ratio of 340/380 was calculated and used to reflect the changes in [Ca^2+]i when different concentrations of [Mg^2+]o were applied to the cells.
To examine the co-activation of CaSR by TNCA and [Mg^2+]o or [Ca^2+]o, different concentrations of TNCA were placed in the experimental buffer with a fixed concentration of [Ca^2+]o and varying concentrations of [Mg^2+]o, or vice versa, as described in the results section. The effects of other ligands were analyzed by comparing the changes in [Ca^2+ ]i produced by [Mg^2+]o alone or by co-application of Mg^2+ with other ligands. The EC50 of [Mg^2+]o obtained during incubation with various concentrations of TNCA is compared with that observed in the presence of [Mg^2+]o alone. The EC50 changes were plotted as a function of TNCA concentration and the curve was fit to the Hill equation. The activation of CaSR by the TNCA, functioning as a co-agonist with [Mg^2+]o, is indicated by the increasingly leftward-shifted EC50 for [Mg^2+]o as the concentration of TNCA increases (FIG. 6).

CaSR [2] = biological target: T1, CaSR; test: ERK1/2 phosphorylation in 5001 cells stably expressing hCaSR; assay type: cell-based; design: expressed in transfected cells
Experimental: The 5001 cell line stably expressing hCaSR was starved in serum-free DMEM medium supplemented with 0.2% (w/v) BSA overnight, followed by washing 3-times with HBSS and a subsequent 10 minute HBSS incubation after 12 hours. To induce ERK1/2 phosphorylation, varying concentrations of [Mg^2+]o (0-50 mM) or [Ca^2+]o (0-30 mM) with or without 0.5 mM TNCA were added to cells and incubated for 10 minutes at 37° C. The cells were then lysed with Pierce RIPA buffer (ThermoFisher Scientific). Total protein concentration was measured using the BioRad assay. Lysates containing 100 μg of total protein were loaded onto 4-20% gradient SDS-PAGE gels for separation. After electrophoresis, proteins on the gel were transferred to nitrocellulose membranes and further analyzed by western blotting. Anti-phospho-p44/42 ERK (1:1000 dilution) and anti-p44/42 (1:2000) polyclonal antibodies were utilized as probes to detect the phosphorylated ERK1/2 and total ERK1/2 respectively. A chemiluminescent detection method (AP Conjugate Substrate Kit, Bio-Rad) was applied to detect phosphor-ERK1/2 and total-ERK1/2. The respective bands on western blots were evaluated by densitometry. The EC50 of [Mg^2+]o- or [Ca^2+]o-dependent responses were obtained by fitting the [Mg^2+]o or [Ca^2+]o concentration-response curves with the Hill equation (Eq.1).

CaSR [3] = biological target: T1, CaSR; design: host or cells: HEK cells, transient; settings: HEK cells, in the presence of 150 mM NaCl; read-out: EC50 for intracellular calcium responses; cited from earlier work
CaSR [4] = biological target: T2, CaSR (Bos taurus, UniProt P35384); settings: X. laevis oocytes; cited from earlier work
T2 construct: host or cells: X. laevis oocytes
T2 sequence (P35384 20-1085): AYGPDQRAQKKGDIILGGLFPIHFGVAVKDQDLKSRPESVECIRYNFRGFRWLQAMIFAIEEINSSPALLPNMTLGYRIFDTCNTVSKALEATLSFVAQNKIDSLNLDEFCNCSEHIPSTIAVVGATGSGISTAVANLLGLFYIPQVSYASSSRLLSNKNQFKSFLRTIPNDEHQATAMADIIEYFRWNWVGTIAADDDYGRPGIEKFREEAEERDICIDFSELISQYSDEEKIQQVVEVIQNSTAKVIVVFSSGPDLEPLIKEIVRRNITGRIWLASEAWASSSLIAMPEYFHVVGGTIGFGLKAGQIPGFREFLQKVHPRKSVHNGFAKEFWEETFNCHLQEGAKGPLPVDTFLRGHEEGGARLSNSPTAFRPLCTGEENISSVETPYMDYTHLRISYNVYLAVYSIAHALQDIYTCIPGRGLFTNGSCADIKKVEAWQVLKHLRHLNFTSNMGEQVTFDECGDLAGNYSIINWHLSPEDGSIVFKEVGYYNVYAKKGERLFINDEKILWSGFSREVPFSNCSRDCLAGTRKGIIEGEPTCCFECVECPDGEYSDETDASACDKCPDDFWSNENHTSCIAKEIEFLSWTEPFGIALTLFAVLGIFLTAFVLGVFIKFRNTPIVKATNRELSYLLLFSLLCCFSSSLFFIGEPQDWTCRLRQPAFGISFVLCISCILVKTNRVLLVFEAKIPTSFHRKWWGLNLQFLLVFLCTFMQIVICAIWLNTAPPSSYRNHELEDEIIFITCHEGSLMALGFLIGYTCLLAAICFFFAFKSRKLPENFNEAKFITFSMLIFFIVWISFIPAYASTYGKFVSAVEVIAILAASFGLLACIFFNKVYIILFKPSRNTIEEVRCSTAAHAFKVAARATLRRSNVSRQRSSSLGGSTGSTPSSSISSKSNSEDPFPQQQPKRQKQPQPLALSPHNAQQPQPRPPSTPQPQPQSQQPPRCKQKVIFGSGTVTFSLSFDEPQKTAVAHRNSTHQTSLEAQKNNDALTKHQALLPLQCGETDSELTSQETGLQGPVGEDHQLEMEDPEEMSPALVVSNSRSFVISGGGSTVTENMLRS

ECD of CaSR = biological target: T3, ECD of CaSR (Homo sapiens, UniProt P41180); test: Ca2+ binding to the ECD by Trp fluorescence signal change; settings: for Kd: read-out: Kd, 2-phase Hill equation
T3 construct: made in house; host or cells: HEK293S (GnTI-) suspension culture, secreted
T3 sequence (P41180 20-612): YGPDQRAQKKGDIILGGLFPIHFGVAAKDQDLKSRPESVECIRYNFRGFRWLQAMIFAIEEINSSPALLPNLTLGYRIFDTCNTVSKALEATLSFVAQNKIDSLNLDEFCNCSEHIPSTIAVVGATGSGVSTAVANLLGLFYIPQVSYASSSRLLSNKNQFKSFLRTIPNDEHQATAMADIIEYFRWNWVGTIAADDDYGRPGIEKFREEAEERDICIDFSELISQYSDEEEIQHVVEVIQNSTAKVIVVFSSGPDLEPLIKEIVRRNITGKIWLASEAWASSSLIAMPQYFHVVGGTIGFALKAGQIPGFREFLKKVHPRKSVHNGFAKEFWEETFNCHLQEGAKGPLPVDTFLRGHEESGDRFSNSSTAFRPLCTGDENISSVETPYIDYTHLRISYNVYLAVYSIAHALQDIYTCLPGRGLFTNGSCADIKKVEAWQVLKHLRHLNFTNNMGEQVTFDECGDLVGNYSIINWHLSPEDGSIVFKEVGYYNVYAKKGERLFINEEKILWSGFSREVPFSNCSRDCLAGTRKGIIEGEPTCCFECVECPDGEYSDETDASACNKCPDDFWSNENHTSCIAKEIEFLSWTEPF

Structure (SMILES)	co-agonism with [Mg^2+]o in activating [Ca^2+]i oscillations (CaSR [1])	potency relative to Phe in reducing the EC50 for [Mg^2+]o or [Ca^2+]o activation of [Ca^2+]i signaling (CaSR [1]; WT and mutant CaSRs)	EC50 (CaSR [1]; determined indirectly through the EC50 change of [Mg^2+]o at different TNCA concentrations, 0.5 mM [Ca^2+]o, read-out: apparent EC50 of TNCA as co-agonist) [µM]	activation of the receptor by the exogenous compound alone (CaSR [1]; without metal agonist)	co-agonism with [Mg^2+]o in activating ERK1/2 phosphorylation (CaSR [2])	EC50 (CaSR [3]) [µM]	EC50 (CaSR [4]) [µM]	Hill number, 2-phase Hill equation (ECD of CaSR; first phase)	Kd (ECD of CaSR; first phase) [µM]	Hill number, 2-phase Hill equation (ECD of CaSR; second phase)	Kd (ECD of CaSR; second phase) [µM]
O=C(O)[C@@H]1Cc2c([nH]c3ccccc23)CN1 [TNCA, L-1,2,3,4-tetrahydronorharman-3-carboxylic acid]	strong co-agonist	greater than 1000 fold	≥ 2	cannot activate the receptor	strong co-agonist						
[Ca+2] [Ca^2+, calcium]						3000 to 5000	3000	1.1	900	3.8	10000
